Measurements as given in PubChem BioAssay (NCI).
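Dose response: 5 concentrations. Exposure: 48 h. Format: 96-well plates. Endpoint: linear interpolation; highest concentration if not reached. The concentration for 50% growth inhibition is given as GI50. TGI: concentration producing complete growth inhibition.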

Legend:
Experiment in all cases: growth of human tumour cells (NCI), 48 h
HOP-92 NSCLC = test system: HOP-92 NSCLC
SF-539 CNS = test system: SF-539 CNS
DU-145 prostate = test system: DU-145 prostate
OVCAR-5 ovarian = test system: OVCAR-5 ovarian
HL-60(TB) leukemia = test system: HL-60(TB) leukemia
TK-10 renal = test system: TK-10 renal

| SMILES | GI50 (HOP-92 NSCLC) | TGI (HOP-92 NSCLC) | GI50 (SF-539 CNS) | TGI (SF-539 CNS) | GI50 (DU-145 prostate) | TGI (DU-145 prostate) | GI50 (OVCAR-5 ovarian) | TGI (OVCAR-5 ovarian) | GI50 (HL-60(TB) leukemia) | TGI (HL-60(TB) leukemia) | GI50 (TK-10 renal) | TGI (TK-10 renal) |
| --- | --- | --- | --- | --- | --- | --- | --- | --- | --- | --- | --- | --- |
| CC(=O)/C(=C/c1ccccc1)C(=O)CC(C)C | 32.7 µM | > 100 µM | 23.4 µM | 49.4 µM | 14.4 µM | 28 µM | 17.7 µM | 41.6 µM | 22.1 µM | 90.2 µM | 23.9 µM | 50.5 µM |
| CSC(=NC#N)S/C=C/C(=O)c1ccccc1 | 32.4 µM | > 100 µM | 22.6 µM | 49.4 µM | 20.6 µM | 46.3 µM | 62 µM | > 100 µM |  |  | 34.5 µM | > 100 µM |
| COC1C(O)CC(OC2CC(OC3CC(O[C@@H]4C(=O)c5c(cc6cc(OC7CC(OC8CC(O)C(O)C(C)O8)C(O)C(C)O7)c(C)c(O)c6c5O)CC4[C@H](OC)C(=O)O)OC(C)C3O)OC(C)C2O)OC1C (some centres not stated) | 4.4 µM | > 33.3 µM |  |  | 1.96 µM | > 33.3 µM | 4.04 µM | > 33.3 µM | 5.53 µM | > 33.3 µM | 4.56 µM | > 33.3 µM |
| CCCCC(CCCCCC(CCCC)NCc1ccc2c(c1)OCO2)NCc1ccc2c(c1)OCO2 (configuration not stated) | 0.569 µM | 2.08 µM | 0.664 µM | 1.48 µM | 0.803 µM | 2.04 µM | 1.66 µM | 3.08 µM | 0.458 µM | 1.21 µM | 1.43 µM | 2.88 µM |
| Cc1ccc2oc(=O)cc(/C(=C3/C=CC=N3)c3ccc[nH]3)c2c1 | 0.155 µM | 2.57 µM | 0.226 µM | 0.67 µM | 0.361 µM | 10.8 µM | 0.901 µM | 12.7 µM | 0.271 µM | 0.717 µM | 0.47 µM | 4.87 µM |
| O=c1c2ccc(S(=O)(=O)c3ccc4c(=O)n5c6ccccc6nc5c5cccc3c45)c3cccc(c32)c2nc3ccccc3n12 |  |  |  | > 100 µM |  | > 100 µM |  | > 100 µM |  |  |  | 50.3 µM |
| COc1cccc(/C=C/C(=O)c2ccc(SC)cc2)c1OC | 21.6 µM | 54.1 µM | 20 µM | 39.6 µM | 20.4 µM | 40.6 µM | 18.7 µM | 34.2 µM |  |  | 22.5 µM | 49.5 µM |
| N#Cc1c(NCc2ccccc2)nc(NCc2ccccc2)c(C#N)c1-c1ccc(O)cc1 | 0.316 µM | 7.96 µM | 13.1 µM | 37.4 µM | 32.4 µM | > 100 µM | 60.3 µM | > 100 µM |  |  | 22.6 µM | 69.4 µM |
| CC1=C2CC(C)(C)/C=C\C(=O)/C(C)=C\C3=C[C@H](C)C[C@]3(O2)C1=O |  | 2.88 µM |  | 3.09 µM |  | 12.1 µM |  | 3.37 µM |  | 2.43 µM |  | 5 µM |
| COc1cc(Oc2c(C)c(Cl)c(OC)c(Cl)c2OC)c2c(c1Cl)COC2=O |  | > 100 µM |  | > 100 µM |  | > 100 µM |  | > 100 µM |  | 31.6 µM |  | > 100 µM |
| COC(=O)c1ccc2c(c1)C(=O)c1c-2n(CCCCl)c(=O)c2cc([N+](=O)[O-])ccc12 | 23.6 µM | 90.9 µM | 83.6 µM | > 100 µM | 37.2 µM | > 100 µM | > 100 µM | > 100 µM | > 100 µM | > 100 µM | > 100 µM | > 100 µM |
| COc1ccc(/C=C2\CN(C(=O)C(Cl)Cl)C/C(=C\c3ccc(OC)cc3)C2=O)cc1 |  |  |  |  |  |  |  |  | 0.791 µM | 7.52 µM |  |  |
| COc1cc2c3cc1Oc1c(OC)c(OC)cc4c1C(=NCC4)Cc1ccc(cc1)Oc1cc(ccc1O)C[C@H]3N(C)CC2 |  | 29.1 µM |  | 27.9 µM |  | > 100 µM |  | > 100 µM |  | 96.5 µM |  | 43.1 µM |
| CC1=CC(C)=NN=C(N)N1S(=O)(=O)c1cc(C)c(Cl)cc1SCc1ccccc1 | 3.82 µM | 38.8 µM | > 100 µM | > 100 µM | 73.4 µM | > 100 µM | > 100 µM | > 100 µM | 6.75 µM | > 100 µM | > 100 µM | > 100 µM |
| O=C1C(=C(C(F)(F)Cl)C(F)(F)Cl)C2CCC1C2 (configuration not stated) |  | 6.42 µM |  | > 6.2 µM |  | > 10 µM |  | > 10 µM |  | > 3.16 µM |  | 4.29 µM |
| CCN1CCC(Nc2ccnc3cc(Cl)ccc23)CC1 | 45.3 µM | > 100 µM | 15.8 µM | 36 µM | 36.5 µM | > 100 µM | 34.2 µM | > 100 µM |  |  |  |  |
| CC(=O)O[C@H]([C@H](OC(C)=O)[C@H](C)OC(C)=O)[C@@H](/C=C/[C@@H]1CC=CC(=O)O1)OC(C)=O | 17.3 µM | 61.7 µM | 34.5 µM | 92.7 µM | 37.9 µM | > 100 µM | > 100 µM | > 100 µM | > 100 µM | > 100 µM | > 100 µM | > 100 µM |
| CCCCCCCCCCCCCCCCCc1nccn1CCOCCO | 2.33 µg/mL | 7.98 µg/mL | 5.74 µg/mL | 11.1 µg/mL | 5.34 µg/mL | 10.4 µg/mL | 5.86 µg/mL | 11.2 µg/mL | 7.56 µg/mL | 15.2 µg/mL | 5.31 µg/mL | 10.4 µg/mL |
| CC(C)N1CCN(c2ccncc2S(=O)(=O)N2CCCCC2)CC1 |  | > 100 µM |  | > 100 µM |  | > 100 µM |  | > 100 µM |  | > 100 µM |  | > 100 µM |
| CC(=O)Nc1cc2cc(N)ccc2oc1=O |  | > 100 µM |  | > 100 µM |  | > 100 µM |  | > 100 µM |  | > 100 µM |  | > 100 µM |
| O=C(CC1(O)C(=O)N(Cc2ccccc2)c2ccc(Cl)cc21)c1ccc(C(=O)NCC2CCC3(CC2)OOC2(CCCCC2)OO3)cc1 (configuration not stated) | 0.214 µM | 0.402 µM | 0.191 µM | 0.379 µM | 0.179 µM | 0.326 µM | 0.644 µM | 6.28 µM |  |  | 0.181 µM | 0.358 µM |
| O=S(=O)(CCN1CCOCC1)Nc1cc(-c2ccc3ncnc(Nc4ccc(F)c(Cl)c4)c3c2)cnc1Cl |  |  | 0.418 µM | 2.69 µM | 0.869 µM | 25.6 µM | 0.492 µM | > 100 µM | 1.15 µM | 12.4 µM |  |  |
| O=C(CCl)NCCNc1nccc(Nc2ccc(S(=O)(=O)Nc3ccccn3)cc2)n1 | 3.46 µM | 9.09 µM | 1.85 µM | 3.9 µM | 2.45 µM | 12.3 µM | 2.28 µM | 5.1 µM |  |  | 3.04 µM | 10.3 µM |
